In ChEMBL document CHEMBL6153141, “Design, Synthesis, and Mechanism Study of Novel BMX Inhibitors Based on the Core of 1,3,5-Triazin-2-Amine for the Treatment of Gastric Carcinoma” (J Med Chem, 2025):
Calls of active or inactive are those of the source. The rule behind the calls is not given here.

Legend:
A549 = assay: cells; conditions: Homo sapiens, A549, 72 h
Description: Anticancer activity against human A549 cells assessed as inhibition of cell proliferation incubated for 72 hrs by MTT assay

PC-9 = assay: cells; conditions: Homo sapiens, PC-9, 72 h
Description: Anticancer activity against human PC-9 cells assessed as inhibition of cell proliferation incubated for 72 hrs by MTT assay

NCI-H1975 = assay: cells; conditions: Homo sapiens, NCI-H1975, 72 h
Description: Anticancer activity against human NCI-H1975 cells assessed as inhibition of cell proliferation incubated for 72 hrs by MTT assay

HCC827 = assay: cells; conditions: Homo sapiens, HCC827, 72 h
Description: Anticancer activity against human HCC827 cells assessed as inhibition of cell proliferation incubated for 72 hrs by MTT assay

NCI-H460 = assay: cells; conditions: Homo sapiens, NCI-H460, 72 h
Description: Anticancer activity against human NCI-H460 cells assessed as inhibition of cell proliferation incubated for 72 hrs by MTT assay

DU-145 = assay: cells; conditions: Homo sapiens, DU-145, 72 h
Description: Anticancer activity against human DU-145 cells assessed as inhibition of cell proliferation incubated for 72 hrs by MTT assay

PC-3 = assay: cells; conditions: Homo sapiens, PC-3, 72 h
Description: Anticancer activity against human PC-3 cells assessed as inhibition of cell proliferation incubated for 72 hrs by MTT assay

CWR22R = assay: cells; conditions: Homo sapiens, 22Rv1, 72 h
Description: Anticancer activity against human 22Rv1 cells assessed as inhibition of cell proliferation incubated for 72 hrs by MTT assay

HGC-27 [1] = assay: Anticancer activity against human HGC-27 cells assessed as inhibition of cell proliferation incubated for 72 hrs by MTT assay; assay type: functional, cell-based; conditions: HGC-27, 72 h
MGC-803 = assay: Anticancer activity against human MGC-803 cells assessed as inhibition of cell proliferation incubated for 72 hrs by MTT assay; assay type: functional, cell-based; conditions: MGC-803, 72 h
AGS = assay: Anticancer activity against human AGS cells assessed as inhibition of cell proliferation incubated for 72 hrs by MTT assay; assay type: functional, cell-based
MDA-MB-231 = assay: Anticancer activity against human MDA-MB-231 cells assessed as inhibition of cell proliferation incubated for 72 hrs by MTT assay; assay type: functional, cell-based; conditions: MDA-MB-231, 72 h
MCF7 = assay: Anticancer activity against human MCF7 cells assessed as inhibition of cell proliferation incubated for 72 hrs by MTT assay; assay type: functional, cell-based; conditions: MCF7, 72 h
4T1 = assay: Anticancer activity against mouse 4T1 cells assessed as inhibition of cell proliferation incubated for 72 hrs by MTT assay; assay type: functional, cell-based; conditions: 4T1, 72 h
HeLa = assay: Anticancer activity against human HeLa cells assessed as inhibition of cell proliferation incubated for 72 hrs by MTT assay; assay type: functional, cell-based
HONE1 cell line = assay: Anticancer activity against human HONE1 cell line assessed as inhibition of cell proliferation incubated for 72 hrs by MTT assay; assay type: functional, cell-based; conditions: HONE1, 72 h
C6661 = assay: Anticancer activity against human C666-1 cells assessed as inhibition of cell proliferation incubated for 72 hrs by MTT assay; assay type: functional, cell-based; conditions: C6661, 72 h
HCT-116 = assay: Anticancer activity against human HCT-116 cells assessed as inhibition of cell proliferation incubated for 72 hrs by MTT assay; assay type: functional, cell-based; conditions: HCT-116, 72 h
HepG2 = assay: Anticancer activity against human HepG2 cells assessed as inhibition of cell proliferation incubated for 72 hrs by MTT assay; assay type: functional, cell-based; conditions: HepG2, 72 h
[2] = Cytotoxicity against human L02 cells assessed as inhibition of cell proliferation incubated for 72 hrs by MTT assay; assay type: toxicity, cell-based
[3] = Cytotoxicity against H9c2 cells assessed as inhibition of cell proliferation incubated for 72 hrs by MTT assay; assay type: toxicity, cell-based; conditions: rat
[4] = Cytotoxicity against HEK293 cells assessed as inhibition of cell proliferation incubated for 72 hrs by MTT assay; assay type: toxicity, cell-based; conditions: human
[5] = Cytotoxicity against human GES1 cells assessed as inhibition of cell proliferation incubated for 72 hrs by MTT assay; assay type: toxicity, cell-based
HGC-27 [6] = assay: Antitumor activity against human HGC-27 cells xenografted in female BALB/c nude mouse model assessed as reduction in tumor growth at 15 mg/kg/day, ip administered for 21 days relative to control; assay type: functional; parameters: scale not given: the % may be the effect or the level left; conditions: time 21 day
HGC-27 [7] = assay: Antitumor activity against human HGC-27 cells xenografted in female BALB/c nude mouse model assessed as reduction in tumor weight at 15 mg/kg/day, ip administered for 21 days; assay type: functional, organism-based; conditions: time 21.0 day
[8] = molecular target: Tyrosine-protein kinase BTK (Homo sapiens, UniProt Q06187); assay: Inhibition of BTK (unknown origin)
Tyrosine-protein kinase BTK, sequence (Q06187 whole entry): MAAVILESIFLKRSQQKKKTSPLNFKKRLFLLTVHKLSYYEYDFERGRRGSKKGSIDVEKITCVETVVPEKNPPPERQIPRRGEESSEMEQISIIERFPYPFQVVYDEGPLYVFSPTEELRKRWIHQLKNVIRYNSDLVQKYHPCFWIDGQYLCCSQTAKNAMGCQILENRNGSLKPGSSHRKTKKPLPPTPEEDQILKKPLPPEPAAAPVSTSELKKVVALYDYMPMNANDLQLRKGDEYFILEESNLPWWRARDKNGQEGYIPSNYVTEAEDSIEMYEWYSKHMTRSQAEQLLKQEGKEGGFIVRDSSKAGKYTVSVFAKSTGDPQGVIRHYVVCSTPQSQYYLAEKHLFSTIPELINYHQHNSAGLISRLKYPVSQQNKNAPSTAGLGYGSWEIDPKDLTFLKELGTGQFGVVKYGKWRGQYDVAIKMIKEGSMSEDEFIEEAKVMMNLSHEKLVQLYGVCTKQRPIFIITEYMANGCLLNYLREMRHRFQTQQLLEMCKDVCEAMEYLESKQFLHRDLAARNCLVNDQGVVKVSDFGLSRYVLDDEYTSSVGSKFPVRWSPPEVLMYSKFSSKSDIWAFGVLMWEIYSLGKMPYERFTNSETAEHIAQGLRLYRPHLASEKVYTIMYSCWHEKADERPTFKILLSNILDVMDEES

SMILES	IC50 (A549) [µM]	IC50 (PC-9) [µM]	IC50 (NCI-H1975) [µM]	IC50 (HCC827) [µM]	IC50 (NCI-H460) [µM]	IC50 (DU-145) [µM]	IC50 (PC-3) [µM]	IC50 (CWR22R) [µM]	also measured
C=CS(=O)(=O)N1CCC[C@@H](Nc2nc(N)nc(Nc3ccc(OCc4ccccc4)cc3)n2)C1	> 32	> 32	> 32	> 32	> 32	19	> 32	> 32	
C=CS(=O)(=O)N1CCC[C@@H](Nc2nc(N)nc(Nc3cccc(OCc4ccccc4)c3)n2)C1	25	21.9	4.3	3	14.3	9.7	18.6	23.7	IC50 (HGC-27 [1]): 15.6 µM; IC50 (MGC-803): 13.4 µM; IC50 (AGS): 9.2 µM; IC50 (MDA-MB-231): 12.1 µM; IC50 (MCF7): 18.4 µM; IC50 (4T1): 17.5 µM; IC50 (HeLa): 14.5 µM; IC50 (HONE1 cell line): 14 µM; IC50 (C6661): 18.9 µM; IC50 (HCT-116): 19.6 µM; IC50 (HepG2): > 32 µM; IC50 at 72 h [2]: > 32 µM; IC50 at 72 h [3]: > 32 µM; IC50 at 72 h [4]: > 32 µM; IC50 at 72 h [5]: 13.9 µM
C=CS(=O)(=O)N1CCC(CNc2nc(N)nc(Nc3ccc(Oc4ccccc4)cc3)n2)CC1	> 32	> 32	> 32	29.3	> 32	> 32	> 32	> 32	
C=CC(=O)N1CCC[C@@H](n2nc(-c3ccc(Oc4ccccc4)cc3)c3c(N)ncnc32)C1 [IBRUTINIB]	17.6	3.1	5.6	0.1	12.7	5.3	21.1	26.7	IC50 (HGC-27 [1]): 16 µM; IC50 (MGC-803): 9.2 µM; IC50 (AGS): 10.4 µM; IC50 (MDA-MB-231): 28.9 µM; IC50 (MCF7): 29.9 µM; IC50 (4T1): 9.3 µM; IC50 (HeLa): 28.1 µM; IC50 (HONE1 cell line): 24.5 µM; IC50 (C6661): 17 µM; IC50 (HCT-116): 17.7 µM; IC50 (HepG2): > 32 µM; IC50 at 72 h [2]: > 32 µM; IC50 at 72 h [3]: > 32 µM; IC50 at 72 h [4]: > 32 µM; IC50 at 72 h [5]: 28.6 µM; Activity (HGC-27 [6]): 17.03%; Activity (HGC-27 [7]): Active
C=CS(=O)(=O)N1CCC[C@@H](Nc2nc(N)nc(Nc3ccc(Oc4ccccc4)cc3)n2)C1	> 32	> 32	29.8	5.2	> 32	> 32	> 32	> 32	
C=CS(=O)(=O)N1CC[C@@H](Nc2nc(N)nc(Nc3ccc(Oc4ccccc4)cc3)n2)C1	> 32	> 32	> 32	12.6	> 32	22.4	> 32	> 32	
Cn1cc(Nc2nc(N)nc(-c3cccc(-n4ccc5cc(C6CC6)ccc5c4=O)c3CO)n2)cn1									IC50 [8]: 0.0042 µM
